Molecular target: T1, CYP17A1 (17α-hydroxylase/17,20 lyase) (Homo sapiens, UniProt P05093)
T1 construct: human recombinant CYP17A1 co-expressed with POR in yeast microsomes; with human P450 oxidoreductase (POR)
T1 sequence (P05093 1-508): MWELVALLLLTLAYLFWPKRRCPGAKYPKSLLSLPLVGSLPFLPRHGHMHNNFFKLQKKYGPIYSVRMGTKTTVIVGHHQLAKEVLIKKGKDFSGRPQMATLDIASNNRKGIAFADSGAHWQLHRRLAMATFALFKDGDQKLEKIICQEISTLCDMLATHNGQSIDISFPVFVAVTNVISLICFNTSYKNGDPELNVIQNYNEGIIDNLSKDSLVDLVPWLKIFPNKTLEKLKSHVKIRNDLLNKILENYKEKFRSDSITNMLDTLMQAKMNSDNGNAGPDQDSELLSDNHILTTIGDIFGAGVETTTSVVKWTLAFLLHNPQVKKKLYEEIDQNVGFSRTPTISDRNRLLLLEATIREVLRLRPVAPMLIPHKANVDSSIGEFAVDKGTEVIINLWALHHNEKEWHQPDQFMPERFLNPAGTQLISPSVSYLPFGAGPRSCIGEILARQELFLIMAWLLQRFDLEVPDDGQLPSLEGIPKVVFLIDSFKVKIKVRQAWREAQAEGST
T1 sequence (P16435 2-677 partner): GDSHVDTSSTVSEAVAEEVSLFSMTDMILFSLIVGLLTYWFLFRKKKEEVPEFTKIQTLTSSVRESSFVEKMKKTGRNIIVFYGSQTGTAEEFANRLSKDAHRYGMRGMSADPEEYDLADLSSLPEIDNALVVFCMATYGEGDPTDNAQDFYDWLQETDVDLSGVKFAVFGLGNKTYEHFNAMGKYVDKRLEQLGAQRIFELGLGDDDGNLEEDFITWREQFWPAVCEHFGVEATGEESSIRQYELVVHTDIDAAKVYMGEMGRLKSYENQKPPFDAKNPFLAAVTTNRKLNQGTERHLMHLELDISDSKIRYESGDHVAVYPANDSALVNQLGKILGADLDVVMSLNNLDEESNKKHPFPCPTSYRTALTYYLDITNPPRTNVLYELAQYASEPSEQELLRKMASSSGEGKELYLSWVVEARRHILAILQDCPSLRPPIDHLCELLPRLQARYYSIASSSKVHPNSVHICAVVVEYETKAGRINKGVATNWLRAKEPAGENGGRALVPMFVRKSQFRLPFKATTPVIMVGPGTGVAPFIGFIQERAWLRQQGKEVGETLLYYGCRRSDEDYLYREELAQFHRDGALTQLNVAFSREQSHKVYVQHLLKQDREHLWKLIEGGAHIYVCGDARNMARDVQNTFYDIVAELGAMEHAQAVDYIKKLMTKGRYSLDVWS
Test: […]α-hydroxylase activity in yeast microsomes with radiolabelled steroid substrate, TLC readout, dose-response
Format: biochemical

In the case of c1cc(-c2cnn3cc(-c4ccc(OCCN5CCCCC5)cc4)cnc23)ccn1 [compound C], the IC50 is reported as 9.6 nM.

From PMC3266282, “Role of AMP-Activated Protein Kinase on Steroid Hormone Biosynthesis in Adrenal NCI-H295R Cells” (PLoS ONE, 2012)
